Measurements: PubChem BioAssay AID264 (DTP/NCI, 2004)
Several values for one entry are separate records, joined by “and”; a condition that tells them apart may be missing. Identical values can stand only once. Records with an inconclusive call do not appear.

System: nude mice, LX-1 lung xenograft intrarenal, tumor weight T/C
Experiment: NCI In Vivo Anticancer Drug Screen. Data for tumor model Human Lung LX-1 Xenograft (intrarenal inoculation) in NU/NU Swiss (nude) mice
Conditions: endpoint: mean tumor weight change, higher = larger tumour
In short: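 Readout: T/C, i.e. treated-group tumor measurement over vehicle-control measurement. Mice bearing transplantable tumors were dosed with compound or vehicle.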

[1] = dose: 50.0 mg/kg/injection, schedule: Q01DX010 (sc), vehicle: saline with Tween-80
[2] = dose: 200.0 mg/kg/injection, schedule: Q04DX003 (sc), vehicle: saline
[3] = dose: 25.0 mg/kg/injection, schedule: Q01DX010 (sc), vehicle: saline
[4] = dose: 50.0 mg/kg/injection, schedule: Q01DX010 (sc), vehicle: saline
[5] = dose: 100.0 mg/kg/injection, schedule: Q01DX010 (sc), vehicle: saline with Tween-80
[6] = dose: 200.0 mg/kg/injection, schedule: Q01DX010 (sc), vehicle: saline with Tween-80
[7] = dose: 400.0 mg/kg/injection, schedule: Q01DX010 (sc), vehicle: saline with Tween-80
[8] = dose: 50.0 mg/kg/injection, schedule: Q04DX003 (sc), vehicle: Klucel (hydroxypropylcellulose) (HPC)
[9] = dose: 100.0 mg/kg/injection, schedule: Q01DX010 (sc), vehicle: saline

## Cc1cn(C2CC3[O][Sn]([c]4ccccc4)([c]4ccccc4)[O]CC3O2)c(=O)[nH]c1=O (stereo not given)
dose: 600.0 mg/kg/injection, schedule: Q04DX003 (sc), vehicle: saline
  T/C: 107 % of control
dose: 2400.0 mg/kg/injection, schedule: Q04DX003 (sc), vehicle: saline
  T/C: 47 % of control

## COC1=C(C)C(=O)C2=C(C1=O)C1C3CC4=C(C(=O)C(OC)=C(C)C4=O)C(CNC(=O)C(C)=O)N3C(C#N)C(C2)N1C (stereo not given)
dose: 1.0 mg/kg/injection, schedule: Q04DX003 (sc), vehicle: Klucel (hydroxypropylcellulose) (HPC)
  T/C: 111 % of control
dose: 2.0 mg/kg/injection, schedule: Q04DX003 (sc), vehicle: Klucel (hydroxypropylcellulose) (HPC)
  T/C: 105 % of control
dose: 4.0 mg/kg/injection, schedule: Q04DX003 (sc), vehicle: Klucel (hydroxypropylcellulose) (HPC)
  T/C: 59 % of control

## ClC(Cl)(Cl)C1=NCc2nnn(Cc3ccccc3)c2N1
dose: 300.0 mg/kg/injection, schedule: Q04DX003 (sc), vehicle: saline with Tween-80
  T/C: 72 % of control
dose: 600.0 mg/kg/injection, schedule: Q04DX003 (sc), vehicle: saline with Tween-80
  T/C: 67 % of control
dose: 1200.0 mg/kg/injection, schedule: Q04DX003 (sc), vehicle: saline with Tween-80
  T/C: 90 % of control
dose: 2400.0 mg/kg/injection, schedule: Q04DX003 (sc), vehicle: saline with Tween-80
  T/C: 36 % of control

## CC[N](CC)[Ge]([CH2]C)[CH2]C.CC[N](CC)[Ge]([CH2]C)[CH2]C
dose: 12.5 mg/kg/injection, schedule: Q01DX010 (sc), vehicle: suspension in saline
  T/C: 67 % of control
dose: 25.0 mg/kg/injection, schedule: Q01DX010 (sc), vehicle: suspension in saline
  T/C: 89 % of control
dose: 50.0 mg/kg/injection, schedule: Q01DX010 (sc), vehicle: suspension in saline
  T/C: 77 % of control

## CC1=CC2C(O)(CC(CO)=CC3C4C(C)(C)C4(OC(=O)c4ccccc4)C(OC(=O)c4ccccc4)C(C)C32O)C1=O (stereo not given)
dose: 1.25 mg/kg/injection, schedule: Q04DX003 (sc), vehicle: saline with Tween-80
  T/C: 77 % of control
dose: 2.5 mg/kg/injection, schedule: Q04DX003 (sc), vehicle: saline with Tween-80
  T/C: 73 % of control
dose: 5.0 mg/kg/injection, schedule: Q04DX003 (sc), vehicle: saline with Tween-80
  T/C: 76 % of control
dose: 10.0 mg/kg/injection, schedule: Q04DX003 (sc), vehicle: saline with Tween-80
  T/C: 43 % of control

## O=c1[nH]c(=O)n(C2CC(O)C(CO)O2)cc1I (stereo not given)
[1]
  T/C: 71 % of control

## O/N=C/c1ccccc1O.O/N=C/c1ccccc1O.[Cu]
dose: 100.0 mg/kg/injection, schedule: Q04DX003 (sc), vehicle: saline with Tween-80
  T/C: 72 % of control
dose: 200.0 mg/kg/injection, schedule: Q04DX003 (sc), vehicle: saline with Tween-80
  T/C: 67 % of control and 72 % of control
dose: 400.0 mg/kg/injection, schedule: Q04DX003 (sc), vehicle: saline with Tween-80
  T/C: 93 % of control

## OCCCN1CCCCC1CO (stereo not given)
[2]
  T/C: 98 % of control

## O=C(O)CC(NC(=O)CP(=O)(O)O)C(=O)O (stereo not given)
[3]
  T/C: 51 % of control
[4]
  T/C: 90 % of control
dose: 200.0 mg/kg/injection, schedule: Q01DX010 (sc), vehicle: saline
  T/C: 57 % of control
dose: 400.0 mg/kg/injection, schedule: Q01DX010 (sc), vehicle: saline
  T/C: 174 % of control

## c1csc(C[N+]23CN4CN(CN(C4)C2)C3)c1
dose: 100.0 mg/kg/injection, schedule: Q04DX003 (sc), vehicle: saline
  T/C: 112 % of control
[2]
  T/C: 100 % of control
dose: 400.0 mg/kg/injection, schedule: Q04DX003 (sc), vehicle: saline
  T/C: 92 % of control

## c1ccc2c(NCCCCCCNc3c4ccccc4nc4ccccc34)c3ccccc3nc2c1
dose: 5.0 mg/kg/injection, schedule: Q01DX010 (sc), vehicle: Klucel (hydroxypropylcellulose) (HPC)
  T/C: 102 % of control

## CC(=O)Nc1ccc(C(=O)C=O)cc1
dose: 25.0 mg/kg/injection, schedule: Q01DX010 (sc), vehicle: saline with Tween-80
  T/C: 69 % of control
[1]
  T/C: 103 % of control
[5]
  T/C: 35 % of control
[6]
  T/C: 45 % of control

## NC(=S)c1ncn(C2OC(CO)C(O)C2O)c1N (stereo not given)
dose: 150.0 mg/kg/injection, schedule: Q04DX003 (sc), vehicle: suspension in saline
  T/C: 87 % of control
dose: 300.0 mg/kg/injection, schedule: Q04DX003 (sc), vehicle: suspension in saline
  T/C: 102 % of control
dose: 600.0 mg/kg/injection, schedule: Q04DX003 (sc), vehicle: suspension in saline
  T/C: 98 % of control
dose: 1200.0 mg/kg/injection, schedule: Q04DX003 (sc), vehicle: suspension in saline
  T/C: 103 % of control

## COc1ccc(-c2cc(C(=O)Nc3cc(C(F)(F)F)cc(C(F)(F)F)c3)c3ccccc3n2)cc1
dose: 150.0 mg/kg/injection, schedule: Q04DX003 (ip), vehicle: DMSO
  T/C: 75 % of control
dose: 300.0 mg/kg/injection, schedule: Q04DX003 (ip), vehicle: DMSO
  T/C: 104 % of control
dose: 600.0 mg/kg/injection, schedule: Q04DX003 (ip), vehicle: DMSO
  T/C: 68 % of control

## C1OC1C1CO1 (stereo not given)
dose: 12.5 mg/kg/injection, schedule: Q01DX010 (sc), vehicle: saline
  T/C: 106 % of control
[3]
  T/C: 80 % of control
[4]
  T/C: 66 % of control

## CCCC(=O)Oc1ccc(/C=N/NC(N)=S)nc1
[1]
  T/C: 91 % of control
[5]
  T/C: 110 % of control
[6]
  T/C: 40 % of control
[7]
  T/C: 15 % of control

## [N-]=[N+]=CC(=O)CCC(=O)C=[N+]=[N-]
dose: 1.5 mg/kg/injection, schedule: Q01DX010 (sc), vehicle: DMSO
  T/C: 69 % of control
dose: 3.0 mg/kg/injection, schedule: Q01DX010 (sc), vehicle: DMSO
  T/C: 27 % of control

## BrCC[Se]c1ccccc1
[1]
  T/C: 92 % of control
[5]
  T/C: 62 % of control
[6]
  T/C: 55 % of control

## Clc1ccc(CN2COc3c(ccc4cccnc34)C2)cc1Cl
[5]
  T/C: 110 % of control
[6]
  T/C: 87 % of control
[7]
  T/C: 97 % of control
dose: 800.0 mg/kg/injection, schedule: Q01DX010 (sc), vehicle: saline with Tween-80
  T/C: 110 % of control

## C/C(=N\N=C(/[Se])N1CC2CCC(CC2)C1)c1ccccn1
dose: 12.5 mg/kg/injection, schedule: Q04DX003 (sc), vehicle: Klucel (hydroxypropylcellulose) (HPC)
  T/C: 100 % of control
dose: 25.0 mg/kg/injection, schedule: Q04DX003 (sc), vehicle: Klucel (hydroxypropylcellulose) (HPC)
  T/C: 79 % of control
[8]
  T/C: 85 % of control
dose: 100.0 mg/kg/injection, schedule: Q04DX003 (sc), vehicle: Klucel (hydroxypropylcellulose) (HPC)
  T/C: 253 % of control

## Cc1ccc(S(=O)(=O)N/N=C/C(Br)=C(/Br)C(=O)O)cc1
dose: 150.0 mg/kg/injection, schedule: Q04DX003 (sc), vehicle: Klucel (hydroxypropylcellulose) (HPC)
  T/C: 66 % of control
dose: 300.0 mg/kg/injection, schedule: Q04DX003 (sc), vehicle: Klucel (hydroxypropylcellulose) (HPC)
  T/C: 58 % of control
dose: 600.0 mg/kg/injection, schedule: Q04DX003 (sc), vehicle: Klucel (hydroxypropylcellulose) (HPC)
  T/C: 43 % of control

## CNC(=O)OCc1c(COC(=O)NC)c(C)n(-c2ccc(OC)cc2)c1C
dose: 25.0 mg/kg/injection, schedule: Q01DX010 (sc), vehicle: Klucel (hydroxypropylcellulose) (HPC)
  T/C: 51 % of control
dose: 50.0 mg/kg/injection, schedule: Q01DX010 (sc), vehicle: Klucel (hydroxypropylcellulose) (HPC)
  T/C: 59 % of control and 63 % of control
[8]
  T/C: 38 % of control
dose: 800.0 mg/kg/injection, schedule: Q04DX003 (sc), vehicle: Klucel (hydroxypropylcellulose) (HPC)
  T/C: 87 % of control

## Cn1/c2cc/c1=C(\c1ccc(S(=O)(=O)O)cc1)c1ccc([n-]1)/C(c1ccc(S(=O)(=O)O)cc1)=c1/cc/c([nH]1)=C(\c1ccc(S(=O)(=O)O)cc1)c1ccc([n-]1)/C=2c1ccc(S(=O)(=O)O)cc1.O.O=S(=O)(O)C(F)(F)F.[Cu+2]
dose: 200.0 mg/kg/injection, schedule: Q04DX003 (sc), vehicle: suspension in saline
  T/C: 100 % of control
dose: 400.0 mg/kg/injection, schedule: Q04DX003 (sc), vehicle: suspension in saline
  T/C: 109 % of control
dose: 800.0 mg/kg/injection, schedule: Q04DX003 (sc), vehicle: suspension in saline
  T/C: 94 % of control

## C(CC1CO1)C1CO1 (stereo not given)
[3]
  T/C: 104 % of control
[4]
  T/C: 64 % of control
[9]
  T/C: 42 % of control

## c1cc(NC2CCCCC2)ccc1CN1CCOCC1
dose: 50.0 mg/kg/injection, schedule: Q01DX010 (sc), vehicle: saline + Tween-80 + alcohol
  T/C: 38 % of control
dose: 100.0 mg/kg/injection, schedule: Q01DX010 (sc), vehicle: saline + Tween-80 + alcohol
  T/C: 74 % of control
dose: 800.0 mg/kg/injection, schedule: Q01DX010 (sc), vehicle: saline + Tween-80 + alcohol
  T/C: 84 % of control
dose: 1600.0 mg/kg/injection, schedule: Q01DX010 (sc), vehicle: saline + Tween-80 + alcohol
  T/C: 84 % of control

## CN(CO)c1nc(N(C)CO)nc(N(C)CO)n1
[3]
  T/C: 92 % of control
[4]
  T/C: 57 % of control
[9]
  T/C: 49 % of control
